B1: RmELA: amidohydrolase native to Rhodothermus marinus (NCBI; WP_012844854.1, SEQ ID NO: 1), Nε-acyl-L-lysine-specific aminoacylase (protein, listed as Rhodothermus marinus)
chain: MLLLPMQARGQADYVLVNGRLYTVDPAQPVAEAMAVRGDRILMVGTTAQLTAAYPDAPHIDLQGRAVVPGFIDAHAHLMGLGLSRLRADLTGTRSVEEILERLREFARQLPEGAWLLGRGWDQNDWPVKEFPTRQMLDEIFPERPVWLVRIDGHAAWANTAAIRRANPALLTEQIPDPEGGHIVRDAEGRLTGVFIDEAMDLIARHIPPPSEAELEEALRRAVAEANRFGLTGVHDAGASLKTIQGYRRAVDDGTLTLRLYVMVDGLGEAFDYFCEHGPLLDYGGRLTVRSVKFYIDGALGSRGAALLADYSDDPGNRGLLRHEPEVFADMVQRAMKCGFQVNTHAIGDRGVRVVLDAYEKALRTLGRTVGRHRVEHAQVVAPEDFARFAELDLIASMQPTHATSDMYWAEDRLGPERVRGAYAWRTFLEHGVRLAFGSDFPVELANPLLGFYAAITRQDAEGWPEGGWYPEQRLTREEALRAFTLDAAYAAFQEHELGSLTPGKYADFVVLSHDIMTVPPEQILQTRVLATFFGGRCVYHDPEAAGLCPASP

How the values were obtained:
RmELA = experiment: Acyl lysine hydrolysis (substrate specificity of purified RmELA); type: biochemical, Rhodothermus marinus; details: for hydrolysis (degradation) activity of the enzyme for the acyl lysine, in words: 4 mM substrate, pH 7.0, 37° C.; for Hydrolysis activity: acyl lysine 4 mM, 100 mM Tris-HCl (pH 7.0), 37° C., 1 U = 1 μmol lysine per 1 minute
Method: To look into the substrate specificity of the acyl lysine hydrolysis of this enzyme, the reactivity of the enzyme as described herein for various kinds of acyl lysines was examined. […] Activity measurement was performed with the various kinds of acyl lysines (4 mM) and 100 mM Tris-HCl (pH 7.0) at 37° C., and the activity was calculated by measuring the concentration of lysine produced along with the degradation of the acyl lysines. For the measurement of L-lysine, BF-5 and a lysine electrode (manufactured by Oji Scientific Instruments Co., Ltd.) was used, whereas for the measurement of D-lysine, an amino acid analyzer (manufactured by Hitachi, Ltd.) was used. Here, 1 U was defined as an enzyme amount that releases 1 μmol lysine from each of the acyl lysines (per 1 minute).

[1] = Synthesis reaction of Nε-dodecanoyl-L-lysine, L-lysine consumption; type: biochemical; details: 300 mmol/L substrates, 3 U/ml, after 24 hours
Method: Using the RmELA enzymatic solution prepared by the method described in Example 7, the synthesis reaction of Nε-dodecanoyl-L-lysine was carried out. A 200 ml of a reaction solution was prepared so as to give final concentrations of 300 mmol/L dodecanoic acid, 300 mmol/L L-lysine hydrochloride, 0.1 mmol/L ZnSO4, 10% methanol, and 3 U/ml the RmELA enzymatic solution and was stirred at 300 rpm using a 500 ml jar fermenter. The pH was adjusted to be 7.0 using 1 N of NaOH, and the reaction temperature was adjusted to be 55° C.
Nα-dodecanoyl-L-lysine was produced by only 0.06% in terms of yield relative to L-lysine.
For the measurement of lysine, BF-5 and a lysine electrode (manufactured by Oji Scientific Instruments Co., Ltd.) were used. The HPLC analysis was performed with Column YMC-UltraHT Pro C18, 50×2.0 mm I.D. (manufactured by YMC Co., Ltd.), a mobile layer of NaH2PO4 (pH 3.0)/MeOH=3/7, and UV 210 nm.
When the reaction pH was changed from pH 7.0 to pH 6.0, and the synthesis reaction of Nε-dodecanoyl-L-lysine was carried out by a method similar to the above, 96% of the charged L-lysine was consumed after 24 hours (FIG. 7). […] At pH 7.0, dodecanoic acid in the reaction solution was emulsified to give a high viscosity solution. […]

[2] = Synthesis reaction of Nε-octanoyl-L-lysine by RmELA enzymatic solution, L-lysine consumption; type: biochemical
Method: Using the RmELA enzymatic solution prepared by the method described in Example 7, the synthesis reaction of Nε-octanoyl-L-lysine was carried out. A 100 ml of a reaction solution was prepared so as to give final concentrations of 300 mmol/L octanoic acid, 300 mmol/L L-lysine hydrochloride, 0.1 mmol/L ZnSO4, and 2.1 U/ml the RmELA enzymatic solution and was stirred at 300 rpm using a 200 ml jar fermenter. The pH was adjusted to be 7.0 using 1 N of NaOH, and the reaction temperature was adjusted to be 50° C.
During the reaction, the reaction solution was sampled over time, and an L-lysine concentration within the reaction solution was measured. […] When the reaction solution after 23 hours was analyzed by HPLC, Nε-octanoyl-L-lysine was produced by 80% in terms of yield relative to L-lysine. […] No peak of Nα-octanoyl-L-lysine was detected.
The substrate (octanoic acid and L-lysine hydrochloride) final concentration in the reaction condition was changed to (1) 500 mmol/L, (2) 750 mmol/L, and (3) 1,000 mmol/L to carry out the synthesis reaction of Nε-octanoyl-L-lysine.
During the reaction, the reaction solution was sampled over time, and an L-lysine concentration in the reaction solution was measured. […] Respective consumption rates relative to the charged L-lysine and reaction times were (1) 87% after 35 hours, (2) 92% after 35 hours, and (3) 94% after 57 hours.

[3] = type: biochemical; details: incubated at 30° C. to 100° C. for 1 hour
Method: Using the purified enzyme acquired by the method described in Example 3, the optimum reaction temperature and temperature stability of the enzyme with Nε-acetyl-L-lysine as a substrate were examined.
Subsequently, remaining activity after being incubated at certain temperatures (30° C. to 100° C.) for 1 hour was measured. The activity was represented as relative activity (%) with the activity value before the incubation as 100.

Optimum pH of the enzyme = type: biochemical; details: 37° C., acetate, Tris-HCl and borate buffers, pH 4.2 to 9.8
Method: Using the purified enzyme acquired by the method described in Example 3, the optimum pH and pH stability of the enzyme with Nε-acetyl-L-lysine as a substrate were examined.
Using various kinds of buffers (pH 4.2 to 6.0: acetate buffers, pH 7.2 to 8.8: Tris-HCl buffers, and pH 9.3 to 9.8: borate buffers) at 37° C., activity at various pH was measured. The activity was represented as relative activity (%) with the maximum activity value as 100. The optimum pH of this enzyme was pH 5.0.

[4] = Storage stability of enzymatic solutions; type: biochemical; details: stored at 4° C., 15° C. and 25° C.
Method: A culture solution of the C. glutamicum expression strain of RmELA acquired by the method described in Example 1, 1-6) was centrifuged to collect the supernatant, which was membrane-sterilized with a 0.45 μm filter to obtain an RmELA enzymatic solution. A WDK010/pPKT-tatABC strain (WO 2010/067871) as a C. glutamicum expression strain of ELA native to Streptomyces mobarensis (SmELA) was cultured and sterilized by a similar procedure to obtain an SmELA enzymatic solution.
These enzymatic solutions were stored at temperatures of 4° C., 15° C., and 25° C., and the transition of enzyme activity was examined. The activity was represented as relative activity (%) with the activity value when the storage started as 100.

[5] = Enzyme activity after heat sterilization of the culture solution; type: biochemical; details: 75° C. for 30 minutes
Method: Whether a C. glutamicum expression strain of RmELA could be sterilized with heat while maintaining the enzyme activity was examined. The culture solution acquired by the method described in Example 1, 1-6) in an amount of 150 μl was dispensed to a PCR tube and was subjected to heat treatment at 75° C. for 30 minutes using a block heater to obtain a heat treatment culture solution. The heat treatment culture solution and the heat treatment culture solution serially diluted (with a dilution rate of ×10^2) with a physiological saline solution (0.85% of NaCl) were applied to a CM2G agar medium (10 g of a yeast extract, 10 g of polypeptone, 5 g of glucose, 5 g of sodium chloride, 0.2 g of DL-methionine, 15 g of agar, pH 7.2, and filled up to 1 L with water) containing 25 mg/l of kanamycin, and the number of formed colonies was counted to examine the number of living bacteria of the RmELA expression strain. As a result, no colony formation was detected. […] When a culture solution without the heat treatment was examined by the same method, the number of living bacteria was 7.0×10^10 cfu/ml.
Subsequently, the culture solution and the heat treatment culture solution explained above were centrifuged individually, the supernatants were collected, and the hydrolysis activity of Nε-acetyl-L-lysine within the supernatants was measured.

hydrolysis (degradation) activity of the enzyme for the acyl lysine, in words (RmELA) | Molecule | Hydrolysis activity (RmELA) [U/mg] | further results
did not exhibit hydrolysis activity | CC(=O)N[C@@H](CCCCN)C(=O)O [Nα-Acetyl-L-Lys, Nα-acetyl-L-lysine] | 0.0 | –
did not exhibit hydrolysis activity | NCCCC[C@H](NC(=O)c1ccccc1)C(=O)O [Nα-Benzoyl-L-Lys, Nα-benzoyl-L-lysine] | 0.0 | –
– | N[C@@H](CCCCNC(=O)[C@@H](N)CCC(=O)O)C(=O)O [Nε-(αGlu)-L-Lys] | 36.8 | –
– | N[C@@H](CCCCNC(=O)CC[C@H](N)C(=O)O)C(=O)O [Nε-(γGlu)-L-Lys] | 41.3 | –
exhibited degradation activity | N[C@@H](CCCCNC(=O)c1ccccc1)C(=O)O [Nε-Benzoyl-L-Lys, Nε-benzoyl-L-lysine] | 90.1 | –
– | B1 | – | charged L-lysine consumed ([1]; pH 6.0, 55° C.): 96%; charged L-lysine consumed ([1]; pH 7.0, 55° C.): 98%; charged L-lysine consumed ([2]; 300 mmol/L substrates, 2.1 U/ml, pH 7.0, 50° C., after 23 hours): 80%; consumption rate relative to the charged L-lysine ([2]; substrate 500 mmol/L, after 35 hours): 87%; consumption rate relative to the charged L-lysine ([2]; substrate 750 mmol/L, after 35 hours): 92%; consumption rate relative to the charged L-lysine ([2]; substrate 1,000 mmol/L, after 57 hours): 94%; temperature up to which no decrease in activity was shown [3]: up to 80 °C; optimum pH (Optimum pH of the enzyme): 5.0; optimum pH (Optimum pH of the enzyme; listed as protein having the amino acid sequence of SEQ ID NO: 1): about 5; transition of enzyme activity during storage [4]: did not decrease in enzyme activity; enzyme activity after heat treatment [5]: no decrease in enzyme activity

Molecule | hydrolysis (degradation) activity of the enzyme for the acyl lysine, in words (RmELA) | Hydrolysis activity (RmELA) [U/mg] | further results
CC(=O)NCCCC[C@@H](N)C(=O)O [Nε-Acetyl-D-Lys, Nε-acetyl-D-lysine] | did not exhibit hydrolysis activity | 0.0 | –
CC(=O)NCCCC[C@H](N)C(=O)O [Nε-Acetyl-L-Lys, Nε-acetyl-L-lysine] | exhibited degradation activity | 17.5 | –

Source: patent publication US10266857B2, “Method for producing Nε-acyl-L-lysine” (AJINOMOTO CO., INC., priority 2015, dated 2019)
